According to patent US6365604B1, “Antipsychotic substituted piperidine derivatives” (Akzo Nobel NV, priority 1997, dated 2002):
Like-named read-outs stand apart in the source and are kept apart here.

Legend:
[1] = system: climbing behaviour in mice, induced by apomorphine; experiment: Apomorphine climbing test (ACT) in mice; assay type: in vivo; conditions: test compound s.c., 0.75 mg/kg apomorphine HCl s.c. after 30 min, climbing scored at 10 and 20 min
From the text: The ability of dopamine receptor antagonists to inhibit the behavioural effects in rodents caused by dopamine agonists such as apomorphine is a well established criterion for predicting the antipsychotic efficacy of these drugs in man (see e.g. W. C. Bowman and M. J. Rand, Textbook of Pharmacology, 2nd ed., 1980, 15, 6). A particularly relevant test in this respect is the apomorphine climbing test (ACT) which measures the ability of a dopamine antagonist to inhibit the climbing behaviour in mice, induced by the subcutaneous or oral administration of apomorphine. Activity in this test, following systemic and oral administration, has been widely used as a predictor of antipsychotic activity i.e. anti-schizophrenic activity (see e.g. J. T Strupczewski et.al., J. Med. Chem., 1995, 38, 1119). Mice treated with apomorphine HCl tend to adopt a vertical position along the wall of a wire mesh cylinder, standing or climbing. This climbing behaviour is considered to be elicited by apomorphine-mediated stimulation of dopamine receptors. […] Test compounds which modulate this climbing behaviour may have antipsychotic activity. The various treatments are randomly distributed over the mice. Each experiment consists of 1+n treatment groups: 1 being a control group of 12 mice receiving apomorphine and vehicle subcutaneously or being a control group of 12 mice receiving apomorphine subcutaneously and vehicle orally; n being (usually 4) compound groups of 12 mice receiving apomorphine and test compound subcutaneously or being compound groups of 12 mice receiving apomorphine subcutaneously and test compound orally.
Experiments are performed in 3 runs of 20 mice each. […]
At 10 min after the treatment with apomorphine the climbing behaviour of each mouse is observed and expressed as a score, according to the following grade: […]
At 20 min after the treatment with apomorphine the climbing behaviour is observed and scored again. For each treatment group the mean score per mouse is determined. […] The final result per group is expressed as the percentage over the control group. […]

catalepsy in rats [2] = conditions: rat, in vivo
Description: (§1) Male Wistar rats (100-125 g, Olac UK) were used for catalepsy experiments. Catalepsy was assessed as described previously (Broekkamp et al, Naunyn-Schmiedeberg's Arch. Pharmacol. 338, 191 1988). Briefly, rats were tested in 6 different observation trials in which the animals were placed in abnormal postures and scored positively with one point for maintaining the imposed posture for 10 s. The imposed postures were: vertical clinging to a grid, upright standing with a high support for the front paws, extension of hindlegs, placement on back, placement of spatula in the mouth and rotation in a wire mesh cylinder.
(§2) Theoretically a maximum score of 6 can be reached. Catalepsy was assessed at 60 and 120 minutes after drug administration. The data were evaluated by 2 way ANOVAR followed by a Newman Kools post hoc test and ED50 values calculated (Table II).

catalepsy in rats [3] = experiment: Catalepsy in rats; conditions: male Wistar rats; catalepsy assessed at 60 and 120 minutes after drug administration
Description: as §1, §2

| melting point | SMILES | ACT(ED50) [1] | further results |
| --- | --- | --- | --- |
| 167.4 °C | CCc1csc(C(=C2CCN(CCCC(=O)N3CCCC3)CC2)c2ccc(F)cc2)c1.Cl.Cl |  |  |
| 95 to 97 °C | Cc1csc(C(=C2CCN(CCCNC(=O)c3ccccc3)CC2)c2ccc(F)cc2)c1.Cl |  |  |
| 114 to 116 °C | Cc1ccc(C(=O)N(C)CCN2CCC(=C(c3ccc(F)cc3)c3cc(C)cs3)CC2)cc1 |  |  |
|  | Cc1csc(C(=C2CCN(CCCC(=O)N3CCCCC3)CC2)c2ccc(F)cc2)c1.O=C(O)C(=O)O [Compound 2l, 1-[4-[4-[(4-fluorophenyl)(4-methylthien-2-yl)methylene]piperidin-1-yl]-1-oxobutyl]-piperidine (1:1) ethanedicarboxylate] | 0.3 mg/kg |  |
|  | Cc1csc(C(=C2CCN(CCCC(=O)N3CCCC3)CC2)c2ccc(F)cc2)c1.Cl.Cl [Compound 2m, 1-[4-[4-[(4-fluorophenyl)(4-methylthien-2-yl)methylene]piperidin-1-yl]-1-oxobutyl]-pyrrolidine.dihydrochloride] | 0.14 mg/kg | CATR (ED50) (catalepsy in rats [2]): >7 mg/kg |
|  | Cc1csc(C(=C2CCN(CCCC(=O)N3CCCCC3)CC2)c2cccc(F)c2)c1.Cl [Compound 2n, 1-[4-[4-[(3-fluorophenyl)(4-methylthien-2-yl)methylene]piperidin-1-yl]-1-oxobutyl]-piperidine.hydrochloride] | 0.34 mg/kg | CATR (ED50) (catalepsy in rats [3]): >17 mg/kg |

| SMILES | melting point | ACT(ED50) [1] | further results |
| --- | --- | --- | --- |
| Cc1ccc(C(=O)NCCN2CCC(=C(c3ccc(F)cc3)c3cc(C)cs3)CC2)cc1.O=C(O)C(=O)O | 189 to 191 °C |  |  |
| Cc1csc(C(=C2CCN(CCNC(=O)C3CC3)CC2)c2ccc(F)cc2)c1.O=C(O)C(=O)O | 98 to 101 °C |  |  |
